US6482436B1, “Magnetically responsive composition” (FeRx Incorporated, priority 1993, dated 2002)
Values after ≈ are worked out from the molar mass of the structure shown.

Assays:
[1] = Adsorption curves and adsorption constants of pharmaceutical agents on iron:carbon carrier particles; type: physicochemical
Procedure: Adsorption upon the particles of various types of pharmaceutical agents at a range of concentrations of the pharmaceutical agent in the absorption solution was performed to determine the absorption curves and absorption constants for each compound as follows: A 16-mer anti-C-Myc oligonucleotide useful in antisense gene-directed therapy is an all phosphorothioate oligodeoxynucleotide, fluorescein-labeled at 5′ end (Macromolecular Resources, Fort Collins, Colo.). […] Unbound drug in adsorption supernatants was determined from the fluorescein fluorescence (Exc. 495 nm, em. 549 nm) using a standard curve. Hematoporphyrin dihydrochloride (Sigma Chemical, USA, H-1875, Lot #23H0879) is a photosensitizer useful in tumor therapy. The compound accumulates by biological processes in certain types of tumor tissue. Upon exposure to light, such as provided by a laser, the compound undergoes a chemical transformation to produce oxygen singlets that are toxic to cells in which it has accumulated. A stock adsorption solution was prepared and drug concentration was determined by spectrophotometry according to G. Garbo et al. Anal. […] The adsorption equation determined by computer analysis using commercially available software was: […] 6-Mercaptopurine sodium salt (provided by Dr. Gruber, Burroughs Wellcome, Lot #7P2774) is an anti-inflammatory agent. […] Drug concentration in adsorption supernatants was determined by spectrophotometry (standard curve: […] Drug concentrations in adsorption supernatants determined by spectrophotometry yielded the following equation for the concentration curve: […] Drug concentration in adsorption supernatants as determined by spectrophotometry yield the following equation for the concentration curve: […] Concentration was determined by absorbance at 253 nm (λmax=253 nm in saline solution).

[2] = Re binding to a series of carbons (colorimetric Re assay); type: physicochemical; details: ambient temperature
Procedure: (§1) An adaptation of a colorimetric Re assay used in the field of metallurgy was used to determine the adsorption of the Re onto carrier particles having a 70:30 iron:carbon ratio. In brief, a 0.1 to 0.5 ml sample was placed in a solution containing 1.0 ml of HCl, 1.3 ml of −α furildoxime (6% in acetone), 0.5 ml of 10% stannous chloride and sufficient water to make 5.0 ml. The mixture was heated to 45° C. for 20 minutes and allowed to cool to room temperature. The absorbance of Re in the solution was measured at 532 nm. The sensitivity of the assay was to about 5 mcg Re. […] As with other drugs, the % binding of Re in the adsorption medium decreases as the Re to carbon ratio increases. […] Release over 24 hours of the Re into physiological saline at ambient temperature from the various carbons preloaded with adsorbed Re was 50% by weight.

[3] = Release of adsorbed Re into saline over 24 hours; type: physicochemical
Procedure: as §1
Less than 10% of the Re was released upon incubation under efflux conditions in saline over 24 hours. The low binding of Re to the carrier particles is consistent with the low binding of other charged, small ionic molecules to activated carbon as compared with the high affinity binding of hydrophobic aromatic molecules. These findings are consistent with use of the carrier particles of the invention with adsorbed Re or Tc as imaging and therapeutic agents.

[4] = Effect of adsorption medium composition on Dox binding to carrier particles; type: physicochemical; details: six test adsorption media; particles first in viscosity agent, Dox/saline added later
Procedure: Additional studies were conducted to compare the effect of the composition of the adsorption solution on the binding of the Dox to carrier particles having an iron:carbon ratio in the range 60:40 to 80:20. The following six test adsorption media compositions were formulated to provide sufficient viscosity to keep the carrier particles physically separate during adsorption of the Dox. The particles were first placed in the viscosity agent and the Dox/saline solution was later added.
1. 10% mannitol; 2% sodium carboxymethyl cellulose (CMC) (medium viscosity); 2% polyvinyl pyrrolidone (PVP in 50 mM citrate phosphate buffer
2. 5% mannitol; 2% CMC; 2% PVP in 50 mM citrate phosphate buffer.
3. 5% mannitol; 2% CMC; 2% PVP; 5% sorbitol in 50 mM citrate phosphate buffer.
4. 10% mannitol; 1% CMC; 2% PVP (K15) in 10 mM potassium phosphate buffer (pH 7.4).
5. 10% mannitol; 1% sodium CMC; potassium phosphate buffer (pH 7.4).
6. 5% sorbitol; 1% sodium CMC; 2% PVP (K1 5); 5% mannitol; in potassium phosphate buffer (pH 7.4)

tumor cells in culture = test: In vitro cytotoxicity evaluation with magnetic field retention of carrier particles; type: cell-based; details: Homo sapiens; released paclitaxel: with or without magnet
Procedure: The IC50 for free paclitaxel alone was identical (5 ng/mL) to paclitaxel released from the carrier particles with or without magnet (5 ng/mL).

[5] = system: human squamous carcinoma cell line, SCC-9; test: Long-term CF clonogenic assay; type: cell-based; details: colonies after 2-3 weeks
Procedure: A separate long-term CF clonogenic assay was evaluated concurrently. In this assay, cells were plated on 35 mm petri dishes and exposed to drug and controls as outlined above. Treated cells were incubated for 2-3 weeks to allow time for colonies to establish. These colonies were fixed in 2% acetic acid and 8% ethanol and stained with crystal violet. The colonies were counted under a Bella Glass Plate Reader.

[6] = system: carcinosarcoma Walker 256; test: Treatment of Walker 256 carcinosarcoma under the tail skin of rats: life span and tumor dissolution; type: in vivo, rats of the Wistar Line; details: group II; water solution i.v. 2 mg/kg during 5 days; versus control group I (21±1.5 days); P<0.05
Procedure: Tests were carried out on male rats of the Wistar Line (bred at Stolbovaya Station of the USSR Academy of Medical Sciences). The rats were infused with carcinosarcoma Walker 256 under the tail skin. When the tumorous volume averaged 986±98 mm^3 the animals were divided into 4 groups, 10 rats in each. The first group (group I) was a control group, and groups II through IV were experimental groups.
The animals in group II were given intravenous injections of a water solution of rubomicine in the amount of 2 mg/kg of body weight during 5 days (the model of traditional use of such anti-cancerous preparations in clinics). The rats in group III were injected with a suspension of ferrocarbon dispersion produced by the previously known method described in European Patent Office Publication No. 0 451 299 A1. The particles comprised iron/carbon in a volume percent ratio of 60:40. The dosage of ferrocarbon particles was 160 mg/kg of body weight, and the dosage of adsorbed rubomicine thereon was 3.2 mg/g of particles. This suspension was injected into the tail vein after placing on the surface of the tumor a permanent magnet with a magnetic field intensity of 6000 oersteds. Localization of the suspension in the tumorous growth zone under control of the externally placed magnetic field was monitored by x-ray pictures. […]

[7] = Comparative binding of photosensitizers to iron:carbon particles; type: physicochemical; details: 80 mcg/ml (0.11 mM) in PBS pH 7.4, 50 mg particles
Description: (§2) Certain porphyrins are photosensitizing compounds useful in photodynamic therapy against tumors. […] Several classes of photosensitizers were screened for comparative binding to iron:carbon particles of various composition. The wavelength near the activation wavelength (often the λmax) of a particular photosensitizer was used for quantitative drug measurements. […] The photosensitizers tested were hematoporphyrin derivative (HPD); benzoporphyrin derivative monoacid A (BPD-ma); Photofrin® porfimer sodium (PF2); and clorin e6. For the binding studies, 10 mg of carbon or 50 mg of iron:carbon particles were optimum. An octanol/buffer (pH 7.4) partition coefficient for the four compounds was as follows: HPD=1; chlorin e6=1.1; PF2=0.1≧; and BPD-ma=4000>.

[8] = Octanol/buffer (pH 7.4) partition coefficient; type: physicochemical
Description: as §2

[9] = Binding and release of BPD-ma with prototype iron:carbon carrier particles (MTCs); type: physicochemical; details: from a 10-fold increase in the initial concentration of the drug; isopropanol medium, 18 hours
Procedure: In order to achieve higher loading levels of BPD-ma, the binding capacity and fractional binding of the drug to four prototype iron:carbon carrier particles (MTCs, or, magnetic targeted compounds) was tested using 1.4 mM drug in isopropanol (with 0.5% 0.02 M acetic acid) as the adsorption medium and a longer equilibration period of 18 hours.

[10] = 80:20 Type K, 0.9% NaCl, pH 10.4, equilibration 2 hrs
[11] = 75:25 Type K, Saline solution, equilibration 0.5 hr

Molecule | % binding, % ([7]; iron:carbon 30:70 Type A) [%] | % binding, mg/mg % ([7]; iron:carbon 30:70 Type A) [mg/mg %] | % binding, % ([7]; iron:carbon 30:70 Type E) [%] | % binding, mg/mg % ([7]; iron:carbon 30:70 Type E) [mg/mg %] | octanol/buffer partition coefficient [8] | further results
Sc1ncnc2nc[nH]c12.[Na] [6-MP Mercaptopurine, 6-Mercaptopurine sodium salt] |  |  |  |  |  | Adsorption constant [1, 10]: 0.24 ± 0.064 (mg/ml)^−1; Maximum adsorption (% of carrier weight) [1, 10]: 11.0 ± 0.97 % of carrier weight
C[C@@H]1[C@H](O)[C@@H](C)/C=C/C=C/C=C/C=C/C=C/C=C/C=C/[C@H](O[C@@H]2O[C@H](C)[C@@H](O)[C@H](N)[C@@H]2O)C[C@@H]2O[C@](O)(C[C@@H](O)C[C@@H](O)[C@H](O)CC[C@@H](O)C[C@@H](O)CC(=O)O[C@H]1C)C[C@H](O)[C@H]2C(=O)O [Amphotericin B] |  |  |  |  |  | Maximum adsorption (% of carrier weight) ([1]; 80:20 Type K, 0.9% NaCl pH 12 (KOH), equilibration 24 hrs): 10.4 ± 0.55 % of carrier weight
CC[C@@]1(O)C(=O)OCc2c1cc1n(c2=O)Cc2cc3ccccc3nc2-1 [Camptothecin] |  |  |  |  |  | Adsorption constant [1, 11]: 521 (mg/ml)^−1; Maximum adsorption (% of carrier weight) [1, 11]: 11 % of carrier weight; Maximum adsorption (% of carrier weight) ([1]; 80:20 Type K, C/E 1:1 (chloroform:ethanol), equilibration 3 hrs, footnote: Below detection limit): 0^2 % of carrier weight
[Re] [Re, rhenium] |  |  |  |  |  | Re binding to a series of carbons ([2]; 30 mg carbon in the adsorption medium): about 35%; Re binding to a series of carbons ([2]; 180 mg carbon in the adsorption medium): about 90%; Re released over 24 hours ([3]; from iron:carbon carrier particles, efflux conditions in saline): Less than 10%; release of Re over 24 hours ([3]; from the various carbons preloaded with Re, physiological saline, ambient temperature): 50 % by weight
COc1cccc2c1C(=O)c1c(O)c3c(c(O)c1C2=O)C[C@@](O)(C(=O)CO)C[C@@H]3O[C@H]1C[C@H](N)[C@H](O)[C@H](C)O1 [doxorubicin] |  |  |  |  |  | adsorption of Dox to the carrier particles by adsorption medium [4]: highest adsorption of Dox to the carrier particles was obtained using formulae 4, 5, and 6
CC(=O)O[C@H]1C(=O)[C@@]2(C)[C@H]([C@H](OC(=O)c3ccccc3)[C@]3(O)C[C@H](OC(=O)[C@H](O)[C@@H](NC(=O)c4ccccc4)c4ccccc4)C(C)=C1C3(C)C)[C@]1(OC(C)=O)CO[C@@H]1C[C@@H]2O [paclitaxel] |  |  |  |  |  | IC50 (tumor cells in culture): 5 ng/mL (≈ 5.86 nM); IC50 [5]: 3 ng/mL (≈ 3.51 nM)
COc1cccc2c1C(=O)c1c(O)c3c(c(O)c1C2=O)C[C@@](O)(C(C)=O)C[C@@H]3O[C@H]1C[C@H](N)[C@H](O)[C@H](C)O1 [rubomicine] |  |  |  |  |  | life span following treatment increased by an average of [6]: 4.5 days
Photofrin® porfimer sodium [PF2] | 11.4 | 0.13 | 7.2 | 0.08 | ≤ 0.1 | 
benzoporphyrin derivative monoacid A [BPD-ma] | 30.1 | 0.33 | 23.0 | 0.25 | > 4000 | increase in binding capacity [9]: 30 fold
clorin e6 | 69.9 | 0.8 | 68.8 | 0.7 | 1.1 | 
hematoporphyrin derivative [HPD] | 41.9 | 0.5 | 37.0 | 0.4 | 1 | 
